According to ChEMBL document CHEMBL1201862, “PubChem BioAssay data set” (2004):
Calls of active or inactive are those of the source.

Experiments:
[1] = molecular target: T1, Oxysterols receptor LXR-beta (Homo sapiens, UniProt P55055); format: functional, cell-based;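 note: agonist activity at LXR measured by a cell-based luminescence readout across a dose range, run as a counterscreen for daf-12 agonists; HEK293 cells with Gal4-LXR fusion and GAL4-driven luciferase reporter; potency for activation of Gal4-LXR reporter so compounds are agonists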
T1 sequence (P55055 whole entry): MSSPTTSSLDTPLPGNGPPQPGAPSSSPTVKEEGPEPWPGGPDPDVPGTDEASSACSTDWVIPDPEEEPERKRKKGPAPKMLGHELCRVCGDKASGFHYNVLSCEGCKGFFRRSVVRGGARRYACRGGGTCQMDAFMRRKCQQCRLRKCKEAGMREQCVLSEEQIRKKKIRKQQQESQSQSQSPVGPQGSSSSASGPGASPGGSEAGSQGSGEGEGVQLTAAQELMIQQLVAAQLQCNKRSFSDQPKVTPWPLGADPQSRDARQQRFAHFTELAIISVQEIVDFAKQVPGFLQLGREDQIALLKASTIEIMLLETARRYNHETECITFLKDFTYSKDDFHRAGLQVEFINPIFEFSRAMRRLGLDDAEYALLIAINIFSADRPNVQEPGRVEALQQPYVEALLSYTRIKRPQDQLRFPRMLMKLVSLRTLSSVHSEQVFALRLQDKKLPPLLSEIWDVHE

[2] = viability loss in THP-1 monocytes – THP-1 cells, cytotoxicity control for Vif-APOBEC3G degradation inhibitor project, dose response (AID 1117359); format: functional; settings: THP-1
[3] = molecular target: Eukaryotic translation initiation factor 4E (Mus musculus, UniProt P63073); assay: blockers of eIF4G binding by eIF4E – biochemical, TR-FRET, dose response (AID 855); format: functional;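 note: potency for disrupting eIF4E binding to eIF4GI seen as loss of FRET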
[4] = molecular target: Induced myeloid leukemia cell differentiation protein Mcl-1 (Homo sapiens, UniProt Q07820); format: functional
[5] = molecular target: 5-hydroxytryptamine receptor 2A (Mus musculus, UniProt P35363); format: functional, cell-based;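 note: CHO-K1 cells with tagged receptor and beta-arrestin; agonist potency measured as compound-induced activation of the receptor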
[6] = molecular target: Mu-type opioid receptor (Homo sapiens, UniProt P35372); format: functional, cell-based;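 note: U2OS cells with beta-arrestin recruitment to OPRM1 by beta-gal complementation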
[7] = viability of PTEN-deleted HCT116 cells – cell-based, HCT116 PTEN knockout, dose response (AID 1047); format: functional;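 note: HCT116 colon tumor cells with PTEN knocked out; cells exposed to compound for 60 hours before readout; potency for loss of cell viability measured by luminescence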
[8] = viability of uninfected HEp-2 cells – cell-based, HTS, cytotoxicity control for RSV inhibitor project, dose response (AID 2410); format: functional; settings: human respiratory syncytial virus
[9] = viability of HCT116 lacking mutant beta-catenin – cell-based, human colon tumor, dose response (AID 1045); format: functional;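 note: HCT116 colon tumor cells with beta catenin knocked out; cells exposed to compound for 60 hours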
[10] = molecular target: T2, Low molecular weight phosphotyrosine protein phosphatase (Homo sapiens, UniProt P24666); format: functional; settings: read-out: IC50_Mean;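 note: Dose-response confirmation assay measuring inhibition of LMPTP enzyme activity by fluorescence intensity read-out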
T2 sequence (P24666 whole entry): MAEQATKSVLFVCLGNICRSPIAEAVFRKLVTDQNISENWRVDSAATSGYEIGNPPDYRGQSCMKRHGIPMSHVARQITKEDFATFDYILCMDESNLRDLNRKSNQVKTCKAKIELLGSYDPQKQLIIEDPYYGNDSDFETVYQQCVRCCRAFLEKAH

[11] = tested on: Streptococcus sp. 'group A'; assay: Streptococcus pyogenes SK(-)GAS viability under kanamycin – luminescence, BacTiterGlo, confirmation, counter-screen for streptokinase expression inhibitor project, dose response (AID 1900); format: functional, organism-based
[12] = tested on: Streptococcus; assay: GAS UMAA2166 growth inhibition – luminescence, BacTiterGlo, counter-screen for streptokinase expression inhibitor project, dose response (AID 1915); format: functional, organism-based;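 note: potency for reduction of bacterial viability or growth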
[13] = IC50 of Artemis nuclease activity blockers – biochemical, fluorescence intensity, dose response (AID 720701); format: functional;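 note: Artemis endonuclease enzyme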
[14] = molecular target: Paired box protein Pax-8 (Homo sapiens, UniProt Q06710); assay: PAX8 transcriptional activity inhibition in RMG-I – RMG-I cells, luciferase, cherry-pick, dose response (AID 687027); format: functional, cell-based;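 note: luciferase reporter driven by Pax8 target thyroperoxidase promoter measured by SteadyGlo luminescence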
[15] = general cell-killing toxicity readout – plate reader, dry powder samples, cytotoxicity control for PAX8 inhibitor project, dose response (AID 743021); format: functional, cell-based
[16] = reduced cellular PGC1a acetyl-lysine signal – cell-based, cherry-picked samples, dose response (AID 720514); format: functional;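 note: potency may reflect raised or lowered acetylation signal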
[17] = OVCAR8 cell viability loss – plate reader, dry powder samples, PAX8 project, dose response (AID 743197); format: functional, cell-based; settings: OVCAR-8
[18] = cytotoxicity in MITF-independent A375 cells – cell-based, CellTiter-Glo luminescence, dry powder, set 4, counter-screen for MITF inhibitor project, dose response (AID 624364); format: functional; settings: A-375;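 note: A375 melanoma cells are MITF independent so this is a counter screen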
[19] = viability loss in MITF-independent A375 cells – cell-based, CellTiter-Glo luminescence, dry powder, set 2, counter-screen for MITF inhibitor project, dose response (AID 624489); format: functional; settings: A-375;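 note: actives are compounds lowering A375 viability meaning general cytotoxicity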
[20] = toxicity toward HepG2 liver cells – cell-based, plate reader, cherry-pick, antagonist series, cytotoxicity control, dose response (AID 743416); format: functional
[21] = viability loss in HEK293 cells – cell-based, plate reader, cherry-picked samples, cytotoxicity control, dose response (AID 743446); format: functional
[22] = molecular target: T3, fMet-Leu-Phe receptor (Homo sapiens, UniProt P21462); assay: formyl peptide receptor binders – dose response (AID 519); format: functional
T3 sequence (P21462 whole entry): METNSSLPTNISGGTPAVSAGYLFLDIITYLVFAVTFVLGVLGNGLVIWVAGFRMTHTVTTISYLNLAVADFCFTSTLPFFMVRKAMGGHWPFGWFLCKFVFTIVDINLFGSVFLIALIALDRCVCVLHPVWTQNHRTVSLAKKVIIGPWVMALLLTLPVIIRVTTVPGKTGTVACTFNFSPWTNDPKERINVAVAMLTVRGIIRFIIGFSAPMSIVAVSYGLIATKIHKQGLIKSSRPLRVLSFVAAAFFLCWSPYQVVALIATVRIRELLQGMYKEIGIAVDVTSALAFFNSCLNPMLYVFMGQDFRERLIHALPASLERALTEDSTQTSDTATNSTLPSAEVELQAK

[23] = molecular target: Peroxisome proliferator-activated receptor gamma/Nuclear receptor coactivator 3 (Homo sapiens, UniProt P37231); format: functional;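 note: agonist potency for raising coactivator recruitment to the receptor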
[24] = molecular target: Peroxisome proliferator-activated receptor gamma/Nuclear receptor coactivator 2 (Homo sapiens, UniProt P37231); format: functional;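 note: agonist potency for raising coactivator recruitment to the receptor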
[25] = molecular target: Peroxisome proliferator-activated receptor gamma/Nuclear receptor coactivator 1 (Homo sapiens, UniProt P37231); format: functional;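 note: agonist potency as compounds enhance coactivator SRC-1 recruitment to PPARgamma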
[26] = HPDE-C7 pancreatic duct cell viability loss – fluorescence, HTS (AID 430); format: functional, cell-based; settings: Homo sapiens
[27] = viability loss of HPDE-C7K cells – cell-based, fluorescence, HTS, primary screen (AID 431); format: functional; settings: Homo sapiens
[28] = HIV-1 AD8 envelope cell-cell fusion blockers – cherry-pick, dose response (AID 652062); format: functional, cell-based;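 note: luciferase signal from cell-cell fusion driven by HIV-1 clade B AD8 Env; potency is for inhibitors of fusion seen as a drop in luminescence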
[29] = off-target signal loss in HeLa-CEM21 co-culture – HeLa F-luc CTL cells, cherry-picked, counter-screen for HIV-1 Env fusion inhibitor project, dose response (AID 652040); format: functional, cell-based;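 note: potency for signal decrease marking cytotoxic or nonspecific inhibition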
[30] = blockers of HIV-1 envelope-mediated cell-cell fusion – cherry-pick, dose response (AID 652057); format: functional, cell-based
[31] = blockers of HIV-1 ZM109 envelope-driven cell-cell fusion – HeLa effector, CEM target cells, luciferase, cherry-pick, dose response (AID 652058); format: functional, cell-based;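 note: luciferase signal from HIV-1 Env mediated cell-cell fusion of effector and target cells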
[32] = molecular target: T4, Calpain-2 catalytic subunit (Sus scrofa, UniProt P43367); assay: m-calpain protease blockers, concentration series – biochemical, fluorogenic peptide substrate, dose response (AID 1420); format: functional
T4 sequence (P43367 whole entry): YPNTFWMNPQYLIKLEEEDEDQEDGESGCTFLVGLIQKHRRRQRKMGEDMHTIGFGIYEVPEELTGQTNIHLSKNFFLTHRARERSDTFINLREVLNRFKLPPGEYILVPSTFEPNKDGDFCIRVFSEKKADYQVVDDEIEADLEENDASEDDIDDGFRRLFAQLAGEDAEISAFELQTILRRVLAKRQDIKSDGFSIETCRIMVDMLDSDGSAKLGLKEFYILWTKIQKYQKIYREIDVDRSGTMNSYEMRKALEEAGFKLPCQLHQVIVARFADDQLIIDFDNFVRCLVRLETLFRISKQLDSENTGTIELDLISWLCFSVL

[33] = molecular target: T5, Cysteine protease ATG4B (Homo sapiens, UniProt Q9Y4P1); format: functional;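 note: Fluorescence-based dose-response confirmation assay measuring inhibition of ATG4B activity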
T5 sequence (Q9Y4P1 whole entry): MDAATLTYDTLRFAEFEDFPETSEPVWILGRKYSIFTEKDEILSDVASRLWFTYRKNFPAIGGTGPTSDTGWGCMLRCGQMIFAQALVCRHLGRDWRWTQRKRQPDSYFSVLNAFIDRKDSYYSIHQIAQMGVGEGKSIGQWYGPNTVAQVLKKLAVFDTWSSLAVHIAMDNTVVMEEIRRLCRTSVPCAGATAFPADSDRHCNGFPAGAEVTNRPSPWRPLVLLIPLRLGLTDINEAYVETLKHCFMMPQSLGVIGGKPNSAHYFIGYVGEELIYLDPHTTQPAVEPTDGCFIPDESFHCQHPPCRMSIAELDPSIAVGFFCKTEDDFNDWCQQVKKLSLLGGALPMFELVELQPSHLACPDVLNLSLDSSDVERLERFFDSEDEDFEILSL

[34] = microbe, parasite or virus in culture; format: functional; settings: Mycobacterium tuberculosis
[35] = molecular target: Heat shock protein HSP 90-alpha (Homo sapiens, UniProt P07900); format: functional, organism-based
[36] = molecular target: Phospholipase A2 (Homo sapiens, UniProt P04054); format: functional;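 note: confirmatory dose-response counterscreen on phospholipase A2, testing hits that came from an ultra-high-throughput screen for ATG4B inhibitors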
[37] = A2780 cell killing – plate reader, dry powder samples, cytotoxicity control, dose response (AID 743046); format: functional, cell-based
[38] = OVCAR-3 cell viability loss – plate reader, dry powder samples, PAX8 inhibitor project, dose response (AID 743044); format: functional, cell-based
[39] = blockers of bursicon-stimulated LGR2 cAMP reporter – cell-based, HEK293, CRE-luciferase reporter, cherry pick, set 2, dose response (AID 743343); format: functional;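 note: transfected cells were stimulated with diluted bursicon conditioned medium after compound addition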
[40] = blockade of melanocortin 4 receptor signaling – cell-based, plate reader, cherry pick, counter-screen for LGR2 antagonist project, dose response (AID 743444); format: functional;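 note: transfected HEK 293 cells stimulated with alpha-MSH peptide; potency of inhibitors of the alpha-MSH evoked signal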

Chain of Paired box protein Pax-8 (Q06710 whole entry): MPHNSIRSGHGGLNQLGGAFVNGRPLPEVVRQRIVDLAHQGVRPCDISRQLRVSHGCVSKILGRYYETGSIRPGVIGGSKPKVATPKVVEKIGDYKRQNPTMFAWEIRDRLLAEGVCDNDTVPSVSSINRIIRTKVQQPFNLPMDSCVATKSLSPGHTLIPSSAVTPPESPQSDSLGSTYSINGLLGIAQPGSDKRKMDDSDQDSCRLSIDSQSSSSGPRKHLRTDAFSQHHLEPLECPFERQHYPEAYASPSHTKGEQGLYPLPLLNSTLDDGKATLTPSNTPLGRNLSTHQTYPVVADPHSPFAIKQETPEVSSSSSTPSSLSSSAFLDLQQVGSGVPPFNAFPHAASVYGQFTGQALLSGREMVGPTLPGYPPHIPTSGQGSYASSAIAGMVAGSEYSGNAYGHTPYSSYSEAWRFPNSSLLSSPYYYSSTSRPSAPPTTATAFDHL
Chain of Eukaryotic translation initiation factor 4E (P63073 whole entry): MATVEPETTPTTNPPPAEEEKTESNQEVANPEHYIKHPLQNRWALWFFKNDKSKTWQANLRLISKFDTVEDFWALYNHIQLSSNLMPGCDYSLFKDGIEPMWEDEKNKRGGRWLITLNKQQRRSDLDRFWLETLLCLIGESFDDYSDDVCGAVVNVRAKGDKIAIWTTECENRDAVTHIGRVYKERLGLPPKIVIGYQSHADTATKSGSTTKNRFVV
Chain of Mu-type opioid receptor (P35372 whole entry): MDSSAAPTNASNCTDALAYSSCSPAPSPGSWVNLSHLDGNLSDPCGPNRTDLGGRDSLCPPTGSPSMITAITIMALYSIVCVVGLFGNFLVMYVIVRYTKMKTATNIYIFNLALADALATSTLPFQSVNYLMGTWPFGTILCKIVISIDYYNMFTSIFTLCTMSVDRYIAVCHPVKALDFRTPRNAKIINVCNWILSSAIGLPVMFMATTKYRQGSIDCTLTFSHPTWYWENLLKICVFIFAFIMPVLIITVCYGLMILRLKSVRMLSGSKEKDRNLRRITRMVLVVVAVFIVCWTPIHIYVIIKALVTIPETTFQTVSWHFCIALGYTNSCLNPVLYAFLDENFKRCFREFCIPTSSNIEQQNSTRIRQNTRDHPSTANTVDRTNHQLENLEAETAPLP
Chain of Induced myeloid leukemia cell differentiation protein Mcl-1 (Q07820 whole entry): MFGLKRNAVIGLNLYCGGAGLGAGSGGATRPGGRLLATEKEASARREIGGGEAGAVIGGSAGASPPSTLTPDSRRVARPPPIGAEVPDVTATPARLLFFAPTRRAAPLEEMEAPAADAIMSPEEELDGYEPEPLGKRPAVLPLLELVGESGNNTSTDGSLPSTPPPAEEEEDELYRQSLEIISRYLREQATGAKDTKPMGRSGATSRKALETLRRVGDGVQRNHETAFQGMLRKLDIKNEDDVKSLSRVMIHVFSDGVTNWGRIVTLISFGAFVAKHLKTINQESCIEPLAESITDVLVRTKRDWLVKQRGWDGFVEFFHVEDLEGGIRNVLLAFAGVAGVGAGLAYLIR
Chain of Peroxisome proliferator-activated receptor gamma/Nuclear receptor coactivator 3 (P37231 whole entry): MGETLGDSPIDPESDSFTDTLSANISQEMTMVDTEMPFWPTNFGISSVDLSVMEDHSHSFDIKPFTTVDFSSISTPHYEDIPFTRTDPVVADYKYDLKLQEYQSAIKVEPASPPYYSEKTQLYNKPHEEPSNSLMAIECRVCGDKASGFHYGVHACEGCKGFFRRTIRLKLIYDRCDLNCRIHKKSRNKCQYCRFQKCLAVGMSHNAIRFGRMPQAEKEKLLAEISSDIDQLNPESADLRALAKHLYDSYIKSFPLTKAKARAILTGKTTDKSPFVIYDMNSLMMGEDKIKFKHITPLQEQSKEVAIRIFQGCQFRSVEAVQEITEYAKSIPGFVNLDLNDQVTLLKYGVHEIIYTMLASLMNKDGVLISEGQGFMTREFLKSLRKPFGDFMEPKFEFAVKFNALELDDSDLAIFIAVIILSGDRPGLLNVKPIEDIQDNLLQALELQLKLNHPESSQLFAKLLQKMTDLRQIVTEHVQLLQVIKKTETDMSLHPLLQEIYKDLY
Chain of Peroxisome proliferator-activated receptor gamma/Nuclear receptor coactivator 3 (Q9Y6Q9 whole entry, further chain): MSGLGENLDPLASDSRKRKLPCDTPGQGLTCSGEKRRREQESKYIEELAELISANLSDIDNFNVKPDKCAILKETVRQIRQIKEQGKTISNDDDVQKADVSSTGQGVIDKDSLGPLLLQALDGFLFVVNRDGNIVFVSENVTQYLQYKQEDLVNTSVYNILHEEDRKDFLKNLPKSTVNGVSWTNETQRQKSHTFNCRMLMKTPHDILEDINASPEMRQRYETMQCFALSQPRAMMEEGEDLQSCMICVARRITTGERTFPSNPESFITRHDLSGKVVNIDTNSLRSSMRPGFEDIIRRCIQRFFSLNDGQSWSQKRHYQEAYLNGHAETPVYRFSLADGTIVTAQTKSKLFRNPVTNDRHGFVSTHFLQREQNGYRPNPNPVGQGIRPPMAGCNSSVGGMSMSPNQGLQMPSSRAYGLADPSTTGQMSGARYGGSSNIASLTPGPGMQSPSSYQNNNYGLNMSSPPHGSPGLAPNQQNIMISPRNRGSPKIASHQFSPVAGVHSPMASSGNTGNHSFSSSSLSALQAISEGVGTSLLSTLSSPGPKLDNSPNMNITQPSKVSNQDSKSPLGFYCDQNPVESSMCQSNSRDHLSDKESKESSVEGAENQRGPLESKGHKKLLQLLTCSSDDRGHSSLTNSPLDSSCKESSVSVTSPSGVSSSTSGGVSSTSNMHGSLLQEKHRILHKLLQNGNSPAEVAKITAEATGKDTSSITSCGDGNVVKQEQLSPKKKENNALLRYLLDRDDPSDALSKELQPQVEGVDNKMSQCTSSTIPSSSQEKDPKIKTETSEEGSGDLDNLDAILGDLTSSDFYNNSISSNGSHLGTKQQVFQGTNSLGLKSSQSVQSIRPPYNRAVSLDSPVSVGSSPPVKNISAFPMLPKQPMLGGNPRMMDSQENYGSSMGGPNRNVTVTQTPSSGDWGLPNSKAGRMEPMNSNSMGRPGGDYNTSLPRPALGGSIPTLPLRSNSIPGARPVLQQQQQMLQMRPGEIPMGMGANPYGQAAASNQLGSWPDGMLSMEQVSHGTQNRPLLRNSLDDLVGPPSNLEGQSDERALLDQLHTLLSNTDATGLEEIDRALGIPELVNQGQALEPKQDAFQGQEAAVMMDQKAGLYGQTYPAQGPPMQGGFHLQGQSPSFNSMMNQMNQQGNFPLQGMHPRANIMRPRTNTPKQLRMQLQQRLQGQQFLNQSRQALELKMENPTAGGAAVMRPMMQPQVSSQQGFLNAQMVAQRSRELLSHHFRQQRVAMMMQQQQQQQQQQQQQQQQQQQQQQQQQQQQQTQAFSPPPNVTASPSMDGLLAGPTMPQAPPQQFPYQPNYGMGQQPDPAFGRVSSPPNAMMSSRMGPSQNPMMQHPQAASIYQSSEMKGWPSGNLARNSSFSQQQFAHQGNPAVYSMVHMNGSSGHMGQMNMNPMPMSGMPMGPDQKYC
Chain of Phospholipase A2 (P04054 whole entry): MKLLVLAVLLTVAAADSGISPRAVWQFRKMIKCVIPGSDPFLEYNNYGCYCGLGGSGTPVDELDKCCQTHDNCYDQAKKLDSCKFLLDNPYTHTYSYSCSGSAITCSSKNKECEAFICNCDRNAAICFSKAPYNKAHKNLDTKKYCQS
Chain of 5-hydroxytryptamine receptor 2A (P35363 whole entry): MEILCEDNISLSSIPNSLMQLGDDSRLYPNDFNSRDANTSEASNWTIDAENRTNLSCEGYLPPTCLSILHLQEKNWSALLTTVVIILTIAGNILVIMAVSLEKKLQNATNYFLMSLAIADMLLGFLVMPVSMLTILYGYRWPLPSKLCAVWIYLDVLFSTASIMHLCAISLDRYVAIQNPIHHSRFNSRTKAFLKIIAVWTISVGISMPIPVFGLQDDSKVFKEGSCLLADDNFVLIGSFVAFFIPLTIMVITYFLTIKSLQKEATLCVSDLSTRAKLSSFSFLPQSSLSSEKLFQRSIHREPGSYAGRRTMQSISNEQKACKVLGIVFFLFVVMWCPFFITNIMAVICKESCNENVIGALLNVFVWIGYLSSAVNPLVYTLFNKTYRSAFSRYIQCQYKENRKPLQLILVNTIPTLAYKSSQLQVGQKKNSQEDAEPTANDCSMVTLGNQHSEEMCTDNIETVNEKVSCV

## COc1ccccc1-c1noc(-c2cccs2)n1
[1]
  EC50: > 67.5 µM (inactive)

## O=[N+]([O-])c1cc(CN2CCOCC2)c2cccnc2c1O
[2]
  CC50: > 40 µM (active)
[3]
  IC50: 50 µM (inactive)
[4]
  IC50: 2.93 µM (active)

## Oc1cc2c(cc1O)[C@@H](c1ccccc1)CNCC2
[2]
  CC50: > 40 µM (active)
[5]
  EC50: 28.2 µM (inactive)
[6]
  EC50: 92.7 µM (inactive)

## O=[N+]([O-])c1ccc(/C=N/Nc2nc(-c3ccccc3)c3cc(Br)ccc3n2)o1
[7]
  EC50: 26.1 µM (active)
[8]
  CC50: > 50 µM (active)
[9]
  EC50: 29.7 µM (active)
[10]
  IC50: 80 µM (inactive)
[11]
  EC50: 0.703 µM (active)
[12]
  EC50: 0.934 µM (active)
[13]
  IC50: 6.57 µM (active)

## COc1ccccc1C#Cc1ccc2c(c1)O[C@@H](CN(C)Cc1cccnc1)[C@H](C)CN([C@H](C)CO)S2(=O)=O
[14]
  AC50: 2.04 µM (active)
[15]
  AC50: 21.8 µM (active)
[16]
  AC50: 5.09 µM (active)
[17]
  AC50: 18.3 µM (active)

## CNc1nc(-c2c[nH]c3ccccc23)cs1
[13]
  IC50: > 20 µM (inactive)

## C=CCNC1=C(NCCCN(CC)CC)C(=O)c2ccccc2C1=O
[18]
  AC50: 25.3 µM (active)
[19]
  AC50: 17.9 µM (active)

## COc1ccc(NC(=O)Nc2ccc3c(c2)CC(=O)N([C@@H](C)CO)C[C@@H](C)[C@H](CN(C)Cc2ccncc2)O3)cc1
[20]
  AC50: > 52 µM (inactive)
[21]
  AC50: > 52 µM (inactive)

## CC1CCN(S(=O)(=O)c2ccc3c(c2)oc(=O)n3CC(=O)NCc2ccc3c(c2)OCO3)CC1
[22]
  Ki: > 66.7 µM (inactive)

## COc1ccc(Br)cc1C(=O)N/N=C/c1ccc([N+](=O)[O-])cc1
[23]
  EC50: > 79.4 µM (not active)
[24]
  EC50: > 79.4 µM (not active)
[25]
  EC50: > 79.4 µM (not active)

## Oc1cc(CSc2ccccn2)nc(O)n1
[16]
  AC50: 1.86 µM (active)

## CN(Cc1cc2ccccc2nc1O)S(C)(=O)=O
[26]
  EC50: > 20 µM (not active)
[27]
  EC50: > 20 µM (not active)

## COc1cc(/C=N/NS(=O)(=O)c2ccc(C)cc2)ccc1OCc1cccc(C(=O)O)c1
[14]
  AC50: 13 µM (active)
[28]
  AC50: 6.48 µM (active)
[29]
  AC50: 5.81 µM (active)
[30]
  AC50: 2.17 µM (active)
[31]
  AC50: 19.5 µM (active)

## O=C(NC1=C(c2ccc(OC(F)(F)F)cc2)C(=O)c2ccccc2C1=O)c1ccccc1
[18]
  AC50: 28.5 µM (active)
[19]
  AC50: 20.7 µM (active)

## Oc1cc(-c2ccccc2)nc2nc(-c3ccco3)nn12
[10]
  IC50: 80 µM (inactive)
[13]
  IC50: > 20 µM (inactive)

## c1ccc(-c2ccc(C(c3ccccc3)n3ccnc3)cc2)cc1 (stereo not given) [BIFONAZOLE]
[32]
  IC50: 14.7 µM (not active)
[26]
  EC50: > 20 µM (not active)
[33]
  IC50: 8.5 µM (active)
[34]
  CC50: > 40 µM (active)
[35]
  AC50: 1.06 µM (active)
[36]
  IC50: 8.89 µM (active)
[27]
  EC50: 17.8 µM (active)

## C[C@@H]1CCCCO[C@H](CN(C)C(=O)Cc2ccccc2)[C@@H](C)CN([C@@H](C)CO)C(=O)c2cc(NS(=O)(=O)c3ccc(Cl)cc3)ccc2O1
[14]
  AC50: 7.18 µM (active)
[37]
  AC50: 48.6 µM (active)
[38]
  AC50: 23.3 µM (active)
[17]
  AC50: 39.2 µM (active)

## ON=C(CCc1ccccc1)c1ccccc1
[1]
  EC50: > 67.5 µM (inactive)

## Cc1ccc(C(=O)C2C(=O)C3CCC2C3)cc1 (stereo not given)
[39]
  AC50: 8.6 µM (active)
[40]
  AC50: 4.95 µM (active)
[21]
  AC50: > 52 µM (inactive)

## CCOC(=O)C1CCN(Cc2ccc(C(=O)OC)cc2)CC1
[22]
  Ki: > 66.7 µM (inactive)
